These results are taken from ChEMBL document CHEMBL1146580, “Acinospesigenin-A, -B, and -C: three new triterpenoids from Phytolacca acinosa” (2003).

The subject of the test is Rattus norvegicus. The experiment in a line: Antiedemic activity against […]-induced paw edema in sc dosed Albino rat. Format: functional.
In turn, `COC(=O)[C@@]1(C)CC[C@]2(C(=O)O)CC[C@]3(C)C(=C[C@@H](O)[C@@H]4[C@@]5(C)C[C@H](O)[C@H](O)[C@@](C)(C=O)[C@@H]5CC[C@]43C)[C@H]2C1` showed an ED50 of 10 mg/kg.

`COC(=O)[C@@]1(C)CC[C@]2(C(=O)O)CC[C@]3(C)C(=CC[C@@H]4[C@@]5(C)C[C@H](O)[C@H](O)[C@@](C)(C=O)[C@@H]5CC[C@]43C)[C@H]2C1` gave an ED50 of 10 mg/kg.

`C[C@]12CCC(=O)C=C1CC[C@@H]1[C@@H]2C(=O)C[C@@]2(C)[C@H]1CC[C@]2(O)C(=O)CO` [CORTISONE] yielded an ED50 of 30 mg/kg.

With `C[C@]12C=CC(=O)C=C1CC[C@@H]1[C@@H]2[C@@H](O)C[C@@]2(C)[C@H]1CC[C@]2(O)C(=O)CO` [PREDNISOLONE], the ED50 came to 60 mg/kg.
